Results published in patent publication US20260035364A1, “BICYCLIC TETRAHYDROTHIAZEPINE DERIVATIVES” (Hoffmann-La Roche Inc., priority 2022, published 2026).

Key:
[1] = system: primary human T-cells; assay: T-cell proliferation assay (CellTiter-Glo); type: cell-based; settings: Homo sapiens, T-cell, 120 h, CD3 condition; for Emax: 5 days, 20 μM reference compound A1 = 100%, read-out: Emax proliferation (% activation); for EC50: proliferation after 5 days, CellTiter-Glo, read-out: Tcell Proliferation CD3 EC50
Outline: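 Expanded primary human T-cells (100k/well) on plates coated with CD3 antibody or PBS only, given a 5- or 6-point dose response (top 20 or 10 μM final, 3.333-fold steps, 0.2% DMSO). ATP measured by CellTiter-Glo 2.0 luminescence after 5 days. Normalized to DMSO and 20 μM reference A1 (100%); EC50 and Emax reported for CD3 conditions.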

[2] = target: DGKalpha (Homo sapiens, UniProt P23743); assay: In vitro DGK inhibition assay (ADP-Glo, liposomes), DGKalpha; type: biochemical; parameters: hDGKalpha(1-735)-N-His; His (N); made in house; host or cells: Sf21 insect cells (baculovirus); settings: 4 nM DGK α, 25 μM ATP, 125 uM DLG in liposomes, 1 hour reaction
Sequence of DGKalpha (P23743 whole entry): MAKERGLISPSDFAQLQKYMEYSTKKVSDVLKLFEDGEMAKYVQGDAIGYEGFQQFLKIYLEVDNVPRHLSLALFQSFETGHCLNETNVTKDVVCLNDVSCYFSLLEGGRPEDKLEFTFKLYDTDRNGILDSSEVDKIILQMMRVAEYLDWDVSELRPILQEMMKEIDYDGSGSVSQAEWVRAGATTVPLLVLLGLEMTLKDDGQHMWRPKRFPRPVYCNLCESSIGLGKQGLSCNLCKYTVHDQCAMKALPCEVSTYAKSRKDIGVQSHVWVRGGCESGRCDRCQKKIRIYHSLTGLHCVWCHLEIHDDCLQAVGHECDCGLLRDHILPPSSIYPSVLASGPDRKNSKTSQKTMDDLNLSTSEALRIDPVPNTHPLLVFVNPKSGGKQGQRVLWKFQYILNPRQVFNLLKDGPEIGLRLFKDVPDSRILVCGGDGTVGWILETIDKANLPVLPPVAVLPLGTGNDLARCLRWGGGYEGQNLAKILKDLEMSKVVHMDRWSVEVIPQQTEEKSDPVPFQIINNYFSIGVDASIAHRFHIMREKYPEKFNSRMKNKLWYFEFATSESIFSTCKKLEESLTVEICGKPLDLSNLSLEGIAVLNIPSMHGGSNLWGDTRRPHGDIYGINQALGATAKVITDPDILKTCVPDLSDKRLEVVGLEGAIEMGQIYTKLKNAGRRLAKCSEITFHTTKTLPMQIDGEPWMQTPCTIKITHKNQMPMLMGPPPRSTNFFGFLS
Outline: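 Full-length human DGKα (4 nM) or DGKζ (2 nM) from Sf21 cells, with DLG substrate at 125 uM in PS/PC liposomes and ATP at 25 μM (α) or 50 μM (ζ); 1 h reaction. ADP formed read by ADP-Glo luminescence; compounds 11-point, 1:3 dilutions from 10 mM, 2% DMSO final.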

IC50 [2] [nM] | SMILES | Emax [1] [%] | EC50 [1] [nM]
815 | CC(C)(c1nc(-c2cc3c(cc2F)S(=O)(=O)C[C@H](N)C(=O)N3Cc2ccc(Oc3ccccc3)cc2)no1)S(C)(=O)=O [Example 30, (3R)-3-amino-8-fluoro-7-[5-(1-methyl-1-methylsulfonyl-ethyl)-1,2,4-oxadiazol-3-yl]-1,1-dioxo-5-[(4-phenoxyphenyl)methyl]-2,3-dihydro-1λ6,5-benzothiazepin-4-one] | 225 | 127
20300 | CC(C)(c1nnc(-c2ccc3c(c2)N(Cc2ccc(Oc4cccc(Cl)c4)cc2)C(=O)[C@@H](N)CS3(=O)=O)o1)S(C)(=O)=O [Example 34, (3R)-3-amino-5-[[4-(3-chlorophenoxy)phenyl]methyl]-7-[5-(1-methyl-1-methylsulfonyl-ethyl)-1,3,4-oxadiazol-2-yl]-1,1-dioxo-2,3-dihydro-1λ6,5-benzothiazepin-4-one] | 127 | 1270
1090 | CC(C)(c1nnc(-c2cc3c(cc2F)S(=O)(=O)C[C@H](N)C(=O)N3Cc2ccc(Cl)cc2)o1)S(C)(=O)=O [Example 2, (3R)-3-amino-5-[(4-chlorophenyl)methyl]-8-fluoro-7-[5-(1-methyl-1-methylsulfonyl-ethyl)-1,3,4-oxadiazol-2-yl]-1,1-dioxo-2,3-dihydro-1λ6,5-benzothiazepin-4-one] | 123 | 399
1960 | CC(C)(c1nc(-c2cc3c(cc2F)S(=O)(=O)C[C@H](N)C(=O)N3Cc2ccc(Oc3ccccc3)nc2)no1)S(C)(=O)=O [Example 48, (3R)-3-amino-8-fluoro-7-[5-(1-methyl-1l-methylsulfonyl-ethyl)-1,2,4-oxadiazol-3-yl]-1,1-dioxo-5-[(6-phenoxy-3-pyridyl)methyl]-2,3-dihydro-1 λ6,5-benzothiazepin-4-one] | 252 | 296
1170 | CS(=O)(=O)Cn1nnc(-c2cc3c(cc2F)S(=O)(=O)C[C@H](N)C(=O)N3Cc2ccc(Oc3ccccc3)cc2)n1 [Example 54, (3R)-3-amino-8-fluoro-7-[2-(methylsulfonylmethyl)tetrazol-5-yl]-1,1-dioxo-5-[(4-phenoxyphenyl)methyl]-2,3-dihydro-1λ6,5-benzothiazepin-4-one] | 310 | 1540
3380 | CC1(c2nnc(-c3ccc4c(c3)N(Cc3ccc(Oc5ccccc5)cc3)C(=O)[C@@H](N)CS4(=O)=O)o2)CCCS1(=O)=O (stereo partly drawn) [Example 58, (3R)-3-amino-7-[5-(2-methyl-1,1-dioxo-thiolan-2-yl)-1,3,4-oxadiazol-2-yl]-1,1-dioxo-5-[(4-phenoxyphenyl)methyl]-2,3-dihydro-1λ6,5-benzothiazepin-4-one] | 112 | 1100
1850 | CC(C)(c1nc(-c2cc3c(cc2F)S(=O)(=O)C[C@H](N)C(=O)N3Cc2ccc(OCc3nc(C(F)(F)F)no3)cc2)no1)S(C)(=O)=O [Example 59, (3R)-3-amino-8-fluoro-7-[5-(1-methyl-1-methylsulfonyl-ethyl)-1,2,4-oxadiazol-3-yl]-1,1-dioxo-5-[[4-[[3-(trifluoromethyl)-1,2,4-oxadiazol-5-yl]methoxy]phenyl]methyl]-2,3-dihydro-1λ6,5-benzothiazepin-4-one] | 185 | 1120
10700 | CS(=O)(=O)C1(c2nnc(-c3ccc4c(c3)N(Cc3ccc(Oc5ccccc5)cc3)C(=O)[C@@H](N)CS4(=O)=O)o2)CC1 [Example 66, (3R)-3-amino-7-[5-(1-methylsulfonylcyclopropyl)-1,3,4-oxadiazol-2-yl]-1,1-dioxo-5-[(4-phenoxyphenyl)methyl]-2,3-dihydro-1λ6,5-benzothiazepin-4-one] | 144 | 2170
1220 | CC(C)(c1nnc(-c2cc3c(cc2F)S(=O)(=O)C[C@H](N)C(=O)N3Cc2ccc(-c3ccc(C(F)(F)F)cc3)cc2)o1)S(C)(=O)=O [Example 35, (3R)-3-amino-8-fluoro-7-[5-(1-methyl-1-methylsulfonyl-ethyl)-1,3,4-oxadiazol-2-yl]-1,1-dioxo-5-[[4-[4-(trifluoromethyl)phenyl]phenyl]methyl]-2,3-dihydro-1λ6,5-benzothiazepin-4-one] | 164 | < 15

Continued, compound first:

SMILES | IC50 [2] [nM] | Emax [1] [%] | EC50 [1] [nM]
CC(C)(c1nc(-c2cc3c(cc2F)S(=O)(=O)C[C@H](N)C(=O)N3Cc2ccc(-c3noc(C4CC4)n3)cc2)no1)S(C)(=O)=O [Example 45, (3R)-3-amino-5-[[4-(5-cyclopropyl-1,2,4-oxadiazol-3-yl)phenyl]methyl]-8-fluoro-7-[5-(1-methyl-1-methylsulfonyl-ethyl)-1,2,4-oxadiazol-3-yl]-1,1-dioxo-2,3-dihydro-1λ6,5-benzothiazepin-4-one] | 818 | 260 | 235
CC(C)(c1nnc(-c2ccc3c(c2)N(Cc2ccc(-c4ccc(C#N)cc4)cc2)C(=O)[C@@H](N)CS3(=O)=O)o1)S(C)(=O)=O [Example 20, 4-[4-[[(3R)-3-amino-7-[5-(1-methyl-1-methylsulfonyl-ethyl)-1,3,4-oxadiazol-2-yl]-1,1,4-trioxo-2,3-dihydro-1λ6,5-benzothiazepin-5-yl]methyl]phenyl]benzonitrile] | 1380 | 85 | 4010
CC(C)(c1nnc(-c2ccc3c(c2)N(Cc2ccc(OCC(F)(F)F)cc2)C(=O)[C@@H](N)CS3(=O)=O)o1)S(C)(=O)=O [Example 6, (3R)-3-amino-7-[5-(1-methyl-1-methylsulfonyl-ethyl)-1,3,4-oxadiazol-2-yl]-1,1-dioxo-5-[[4-(2,2,2-trifluoroethoxy)phenyl]methyl]-2,3-dihydro-1λ6,5-benzothiazepin-4-one] | 1780 | 62 | 5560
CC(C)(c1nnc(-c2ccc3c(c2)N(Cc2ccc(-c4ccc(F)cn4)cc2)C(=O)[C@@H](N)CS3(=O)=O)o1)S(C)(=O)=O [Example 9, (3R)-3-amino-5-[[4-(5-fluoro-2-pyridyl)phenyl]methyl]-7-[5-(1-methyl-1-methylsulfonyl-ethyl)-1,3,4-oxadiazol-2-yl]-1,1-dioxo-2,3-dihydro-1λ6,5-benzothiazepin-4-one] | 944 | 82 | 2700
CC(C)(c1nc(-c2cc3c(cc2F)S(=O)(=O)C[C@H](N)C(=O)N3Cc2ccc(-c3noc(C(F)(F)F)n3)cc2)no1)S(C)(=O)=O [Example 46, (3R)-3-amino-8-fluoro-7-[5-(1-methyl-1-methylsulfonyl-ethyl)-1,2,4-oxadiazol-3-yl]-1,1-dioxo-5-[[4-[5-(trifluoromethyl)-1,2,4-oxadiazol-3-yl]phenyl]methyl]-2,3-dihydro-1λ6,5-benzothiazepin-4-one] | 1100 | 185 | 135
CC(C)(c1nnc(-c2ccc3c(c2)N(Cc2ccc(-c4ccc(C(F)(F)F)cc4)cc2)C(=O)[C@@H](N)CS3(=O)=O)o1)S(C)(=O)=O [Example 56, (3R)-3-amino-7-[5-(1-methyl-1-methylsulfonyl-ethyl)-1,3,4-oxadiazol-2-yl]-1,1-dioxo-5-[[4-[4-(trifluoromethyl)phenyl]phenyl]methyl]-2,3-dihydro-1λ6,5-benzothiazepin-4-one] | 10100 | 137 | 636
